Assay results: patent US7553969B1, “Substituted phenethylamine derivatives” (Chugai Seiyaku Kabushiki Kaisha, priority 1999, dated 2009)
Where a SMILES comes first, the peptide text is derived from it. [ ]: non-standard residue; d: D form. The star is where a group is joined. NMeTyr(3-tBu) = CN[C@@H](Cc1ccc(O)c(C(C)(C)C)c1)C(=O)O; Tyr(3-tBu) = CC(C)(C)c1cc(C[C@H](N)C(=O)O)ccc1O; Phe(4-F) = N[C@@H](Cc1ccc(F)cc1)C(=O)O; NMeF = CN[C@@H](Cc1ccccc1)C(=O)O; NMeV = CN[C@H](C(=O)O)C(C)C; Morpholide = C1CN(*)CCO1

Experiments:
[1] = target: T1, motilin receptor (Oryctolagus cuniculus, UniProt G1T803); test: Motilin receptor binding test (125I motilin, rabbit duodenum protein sample); conditions: 125I motilin 25 pM, concentration reducing specific binding by 50%
T1 construct: homogenized in 50 mM Tris buffer to prepare a protein sample; from tissue; host or cells: rabbit duodenum homogenate (mucous membrane separated)
In short: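 Radioligand binding of 25 pM 125I-motilin to rabbit duodenal mucosa homogenate in 50 mM Tris. Specific binding was defined by excess unlabelled motilin (10^−7 M). IC50 (nM) is the concentration cutting specific binding by 50%.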

[2] = test system: specimen of longitudinal muscle in the duodenum extracted from a rabbit (motilin-induced contraction); test: Action on the motilin-induced contraction of a specimen of longitudinal muscle in the duodenum extracted from a rabbit; conditions: Oryctolagus cuniculus, organ bath, Krebs solution 28° C., read-out: Contraction suppressing test, pA2 (converted)
In short: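 Rabbit duodenal longitudinal strip in Krebs solution at 28° C, gassed 95% O2/5% CO2, contraction recorded isotonically under 1-g load. Contraction expressed relative to 10^−4 M acetylcholine as 100%. Activity given as pA2 against dose-dependent motilin-induced contraction.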

T1 sequence (G1T803 1-400): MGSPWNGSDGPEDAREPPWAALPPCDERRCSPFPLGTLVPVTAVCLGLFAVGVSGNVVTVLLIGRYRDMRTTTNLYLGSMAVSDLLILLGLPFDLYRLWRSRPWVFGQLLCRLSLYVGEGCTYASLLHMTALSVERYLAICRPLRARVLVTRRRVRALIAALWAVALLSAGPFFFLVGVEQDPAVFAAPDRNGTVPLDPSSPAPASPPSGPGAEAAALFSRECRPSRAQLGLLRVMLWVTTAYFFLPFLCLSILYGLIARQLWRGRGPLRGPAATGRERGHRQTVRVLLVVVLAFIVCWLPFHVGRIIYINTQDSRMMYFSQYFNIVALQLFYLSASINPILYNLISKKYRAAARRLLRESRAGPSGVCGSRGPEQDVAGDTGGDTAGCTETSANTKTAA

Row | Structure (SMILES) | IC50 [1] [nM] | Kb [2] [nM]
1 | CC(C)[C@@H](C(=O)N[C@H](CO)Cc1ccc(O)c(C(C)(C)C)c1)N(C)C(=O)[C@@H](N)Cc1ccc(F)cc1 [Example 17, 2-(2-((2-amino-3-(4-fluorophenyl)propionyl)-N-methylamino)-3-methyl-butyrylamino)-3-(3-tBu-4-hydroxyphenyl)propanol] | 0.7 | 0.794
2 | CC(C)[C@@H](C(=O)N[C@@H](Cc1ccc(O)c(C(C)(C)C)c1)c1ncno1)N(C)C(=O)[C@@H](N)Cc1ccc(F)cc1 [Example 22, 2-((2-amino-3-(4-fluorophenyl)propionyl)-N-methylamino)-3-methylbutyric acid 2-(3-t-butyl-4-hydroxyphenyl)-1-(1,2,4-oxadiazol-5-yl)ethylamide] | 0.52 | 5.01
3 | CN(C(=O)[C@@H](N)Cc1ccc(F)cc1)[C@@H](Cc1ccccc1)C(=O)N(C)[C@@H](Cc1ccc(O)c(C(C)(C)C)c1)C(N)=O [Example 155, Phe(4-F)-N-Me-Phe-N-Me-Tyr(3-tBu)-NH2] (H-[Phe(4-F)]-[NMeF]-[NMeTyr(3-tBu)]-NH2) | 2.5 | 7.94
4 | CC(C)[C@@H](C(=O)N(C)[C@@H](Cc1ccc(O)c(C(C)(C)C)c1)C(=O)N1CCOCC1)N(C)C(=O)[C@@H](N)Cc1ccc(F)cc1 [Example 133, (2S)-2-[(2S)-2-amino-3-(4-fluorophenyl)-N-methylpropanolyamino]-N-((1S)-1-{[3-(tert-butyl)-4-hydroxyphenyl]methyl}-2-morpholin-4-yl-2-oxoethyl)-3-methyl-N-methylbutanamide] (H-[Phe(4-F)]-[NMeV]-[NMeTyr(3-tBu)]-Morpholide) | 1.1 | 6.31

Further lines, with some results ahead:

Row | IC50 [1] [nM] | Structure (SMILES) | Kb [2] [nM]
5 | 3 | CCN[C@@H](Cc1ccc(F)cc1)C(=O)N(C)[C@H](C(=O)N(C)[C@@H](Cc1ccc(O)c(C(C)(C)C)c1)C(=O)NC)C(C)C [Example 38, N-Et-Phe(4-F)-N-Me-Val-N-Me-Tyr(3-tBu)-NHMe] | 6.31
6 | 0.39 | CCNC(=O)[C@H](Cc1ccc(O)c(C(C)(C)C)c1)N(CC)C(=O)[C@H](C(C)C)N(C)C(=O)[C@@H](N)Cc1ccc(F)cc1 [Example 107, Phe(4-F)-N-Me-Val-N-Et-Tyr(3-tBu)-NHEt] | 2
7 | 0.47 | CC(C)[C@@H](C(=O)N[C@@H](Cc1ccc(O)c(C(C)(C)C)c1)C(=O)NCO)N(C)C(=O)[C@@H](N)Cc1ccc(F)cc1 [Example 122, Phe(4-F)-N-Me-Val-Tyr(3-tBu)-NHCH2OH] | 1
8 | 1.5 | CCN(C(=O)[C@H](C(C)C)N(C)C(=O)[C@H](Cc1ccc(F)cc1)NC)[C@@H](Cc1ccc(O)c(C(C)(C)C)c1)C(=O)NCO [Example 128, N-Me-Phe(4-F)-N-Me-Val-N-Et-Tyr(3-tBu)-NHCH2OH] | 2
9 | 0.52 | CC(C)[C@@H](C(=O)N[C@@H](Cc1ccc(O)c(C(C)(C)C)c1)C(N)=O)N(C)C(=O)[C@@H](N)Cc1ccc(F)cc1 [Example 28, Phe(4-F)-N-Me-Val-Tyr(3-tBu)-NH2] (H-[Phe(4-F)]-[NMeV]-[Tyr(3-tBu)]-NH2) | 1
